Reference: ChEMBL document CHEMBL1149736, “A new acylated N-glycosyl lactam from Aristolochia contorta” (1992)
Values after ≈ are worked out from the molar mass of the structure shown.

How the values were obtained:
Micrococcus luteus = experiment: Antibacterial activity against Sarcina lutea; format: functional
Bacillus subtilis = experiment: Antibacterial activity against Bacillus subtilis; format: functional

COc1cccc2c1cc1c3c(cc4c(c32)OCO4)C(=O)N1[C@@H]1O[C@H](COC(=O)/C=C/c2ccc(O)cc2)[C@@H](O)[C@H](O)[C@H]1O
MIC (Micrococcus luteus): 175 µg/mL (≈ 291 µM) | MIC (Bacillus subtilis): 43.8 µg/mL (≈ 72.8 µM)

O=C(N[C@H](CO)[C@H](O)c1ccc([N+](=O)[O-])cc1)C(Cl)Cl [CHLORAMPHENICOL]
MIC (Micrococcus luteus): 5 µg/mL (≈ 15.5 µM)
